Test results: patent US9493455B2, “Azaindole derivatives as inhibitors of protein kinases” (ORIBASE PHARMA, priority 2012, dated 2016)

Key:
Assay in all cases: In vitro kinase assay (Z′-LYTE)
Type in all cases: biochemical
PDGFRA (PDGFR alpha) = target: T1, PDGFRA (PDGFR alpha) (Homo sapiens, UniProt P16234); details: read-out: % of inhibition of the kinase compared to the control
T1 construct: purchased Invitrogen
Method in brief: (§1)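 Z′-LYTE FRET assay: kinase phosphorylation of a dual-fluorophore peptide protects it from protease cleavage, and the donor/acceptor emission ratio after 400 nm excitation tracks progress. Compounds were tested at 100 nM, or at 10 μM against ABL T315I, in 1% DMSO final, with ATP at apparent Km.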

ERK2 = target: T2, ERK2 (Homo sapiens, UniProt P28482); details: read-out: percent inhibition of the kinase compared to the control
T2 construct: purchased Invitrogen
Method in brief: as §1

FGFR1 = target: T3, FGFR1 (Homo sapiens, UniProt P11362); details: read-out: % of inhibition of the kinase compared to the control
T3 construct: purchased Invitrogen
T3 sequence (P11362 22-822): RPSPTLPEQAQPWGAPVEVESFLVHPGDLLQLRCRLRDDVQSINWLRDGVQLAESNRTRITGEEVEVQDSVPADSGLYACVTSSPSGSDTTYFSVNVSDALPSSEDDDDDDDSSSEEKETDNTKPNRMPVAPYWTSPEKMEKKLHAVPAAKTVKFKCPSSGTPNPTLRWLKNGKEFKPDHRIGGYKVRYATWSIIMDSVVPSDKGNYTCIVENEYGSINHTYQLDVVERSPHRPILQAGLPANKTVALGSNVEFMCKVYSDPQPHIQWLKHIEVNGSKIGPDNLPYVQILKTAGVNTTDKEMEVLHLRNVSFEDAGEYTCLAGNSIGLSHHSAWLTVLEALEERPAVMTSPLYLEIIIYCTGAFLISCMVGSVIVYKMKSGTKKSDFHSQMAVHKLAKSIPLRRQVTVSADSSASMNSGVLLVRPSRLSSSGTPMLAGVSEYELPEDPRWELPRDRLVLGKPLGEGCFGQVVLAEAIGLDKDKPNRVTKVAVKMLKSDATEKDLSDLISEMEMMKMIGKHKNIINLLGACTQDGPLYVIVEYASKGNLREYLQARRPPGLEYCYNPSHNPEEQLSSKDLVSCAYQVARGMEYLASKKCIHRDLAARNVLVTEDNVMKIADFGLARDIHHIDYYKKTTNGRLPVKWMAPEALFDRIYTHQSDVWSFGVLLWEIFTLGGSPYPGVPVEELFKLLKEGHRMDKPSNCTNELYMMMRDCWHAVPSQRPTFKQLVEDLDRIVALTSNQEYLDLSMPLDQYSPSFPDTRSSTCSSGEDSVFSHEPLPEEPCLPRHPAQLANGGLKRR
Method in brief: as §1

YES = target: T4, YES (Homo sapiens, UniProt P07947); details: read-out: percent inhibition of the kinase compared to the control
T4 construct: purchased Invitrogen
Method in brief: as §1

BMX = target: T5, BMX (Homo sapiens, UniProt P51813); details: read-out: percent inhibition of the kinase compared to the control
T5 construct: purchased Invitrogen
Method in brief: as §1

ABL G250E = target: T6, ABL G250E (Homo sapiens, UniProt P00519, G250E); details: read-out: percent inhibition of the kinase compared to the control
T6 construct: purchased Invitrogen
Method in brief: as §1

EPHA4 = target: T7, EPHA4 (Homo sapiens, UniProt P54764); details: read-out: percent inhibition of the kinase compared to the control
T7 construct: purchased Invitrogen
Method in brief: as §1

ABL2 = target: T8, ABL2 (Homo sapiens, UniProt P42684); details: read-out: percent inhibition of the kinase compared to the control
T8 construct: purchased Invitrogen
Method in brief: as §1

FMS = target: T9, FMS (Homo sapiens, UniProt P07333); details: read-out: percent inhibition of the kinase compared to the control
T9 construct: purchased Invitrogen
T9 sequence (P07333 20-972): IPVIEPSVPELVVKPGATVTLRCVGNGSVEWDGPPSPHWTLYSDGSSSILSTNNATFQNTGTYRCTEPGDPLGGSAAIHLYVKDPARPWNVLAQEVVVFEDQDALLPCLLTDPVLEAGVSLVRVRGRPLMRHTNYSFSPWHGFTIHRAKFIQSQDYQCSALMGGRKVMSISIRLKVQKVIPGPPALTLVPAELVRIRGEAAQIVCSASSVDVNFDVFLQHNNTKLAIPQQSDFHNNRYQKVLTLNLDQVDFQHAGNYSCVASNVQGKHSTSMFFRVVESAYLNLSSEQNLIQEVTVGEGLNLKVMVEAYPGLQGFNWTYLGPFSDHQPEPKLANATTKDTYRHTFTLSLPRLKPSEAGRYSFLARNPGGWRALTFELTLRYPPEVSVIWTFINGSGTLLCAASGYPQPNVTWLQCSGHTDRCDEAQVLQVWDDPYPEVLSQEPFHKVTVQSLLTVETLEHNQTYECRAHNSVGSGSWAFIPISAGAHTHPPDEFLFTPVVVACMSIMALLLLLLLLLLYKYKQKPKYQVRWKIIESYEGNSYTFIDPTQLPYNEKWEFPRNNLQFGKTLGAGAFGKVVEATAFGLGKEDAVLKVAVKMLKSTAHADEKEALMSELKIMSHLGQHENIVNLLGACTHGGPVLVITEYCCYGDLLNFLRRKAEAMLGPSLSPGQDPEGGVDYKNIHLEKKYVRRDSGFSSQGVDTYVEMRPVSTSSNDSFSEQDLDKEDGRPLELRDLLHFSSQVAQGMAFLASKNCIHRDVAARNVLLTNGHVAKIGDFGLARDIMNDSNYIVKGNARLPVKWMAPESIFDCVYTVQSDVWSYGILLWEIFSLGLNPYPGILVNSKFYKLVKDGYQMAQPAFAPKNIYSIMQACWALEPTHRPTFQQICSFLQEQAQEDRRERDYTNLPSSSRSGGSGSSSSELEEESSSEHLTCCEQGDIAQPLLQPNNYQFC
Method in brief: as §1

LCK = target: T10, LCK (Homo sapiens, UniProt P06239); details: read-out: percent inhibition of the kinase compared to the control
T10 construct: purchased Invitrogen
T10 sequence (P06239 whole entry): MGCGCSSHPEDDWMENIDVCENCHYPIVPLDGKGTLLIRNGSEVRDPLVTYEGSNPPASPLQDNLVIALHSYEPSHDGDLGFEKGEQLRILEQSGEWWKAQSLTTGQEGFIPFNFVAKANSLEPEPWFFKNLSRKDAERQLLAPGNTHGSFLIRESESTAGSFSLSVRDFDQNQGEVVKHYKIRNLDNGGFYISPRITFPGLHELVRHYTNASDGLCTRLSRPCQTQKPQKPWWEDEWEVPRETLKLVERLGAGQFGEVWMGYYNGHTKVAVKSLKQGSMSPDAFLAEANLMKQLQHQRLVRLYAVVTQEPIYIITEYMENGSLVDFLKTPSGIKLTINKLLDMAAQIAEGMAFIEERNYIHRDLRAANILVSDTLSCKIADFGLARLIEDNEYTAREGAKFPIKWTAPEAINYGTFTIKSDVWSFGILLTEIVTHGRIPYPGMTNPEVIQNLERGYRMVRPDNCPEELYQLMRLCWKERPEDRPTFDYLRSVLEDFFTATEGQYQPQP
Method in brief: as §1

ABL E255K = target: T11, ABL E255K (Homo sapiens, UniProt P00519, E255K); details: read-out: percent inhibition of the kinase compared to the control
T11 construct: purchased Invitrogen
Method in brief: as §1

VEGFR3 = target: T12, VEGFR3 (Homo sapiens, UniProt P35916); details: read-out: percent inhibition of the kinase compared to the control
T12 construct: purchased Invitrogen
Method in brief: as §1

VEGFR1 = target: T13, VEGFR1 (Homo sapiens, UniProt P17948); details: read-out: % of inhibition of the kinase compared to the control
T13 construct: purchased Invitrogen
Method in brief: as §1

FLT3 = target: T14, FLT3 (Homo sapiens, UniProt P36888); details: read-out: percent inhibition of the kinase compared to the control
T14 construct: purchased Invitrogen
Method in brief: as §1

FES = target: T15, FES (Homo sapiens, UniProt P07332); details: read-out: percent inhibition of the kinase compared to the control
T15 construct: purchased Invitrogen
Method in brief: as §1

ABL Y253F = target: T16, ABL Y253F (Homo sapiens, UniProt P00519, Y253F); details: read-out: percent inhibition of the kinase compared to the control
T16 construct: purchased Invitrogen
Method in brief: as §1

EGFR (ErbB1) = target: T17, EGFR (ErbB1) (Homo sapiens, UniProt P00533); details: read-out: % of inhibition of the kinase compared to the control
T17 construct: purchased Invitrogen
Method in brief: as §1

ERBB4 = target: T18, ERBB4 (Homo sapiens, UniProt Q15303); details: read-out: percent inhibition of the kinase compared to the control
T18 construct: purchased Invitrogen
Method in brief: as §1

CSK = target: T19, CSK (Homo sapiens, UniProt P41240); details: read-out: percent inhibition of the kinase compared to the control
T19 construct: purchased Invitrogen
Method in brief: as §1

MAPK14 = target: T20, MAPK14 (Homo sapiens, UniProt Q16539); details: read-out: percent inhibition of the kinase compared to the control
T20 construct: purchased Invitrogen
T20 sequence (Q16539 whole entry): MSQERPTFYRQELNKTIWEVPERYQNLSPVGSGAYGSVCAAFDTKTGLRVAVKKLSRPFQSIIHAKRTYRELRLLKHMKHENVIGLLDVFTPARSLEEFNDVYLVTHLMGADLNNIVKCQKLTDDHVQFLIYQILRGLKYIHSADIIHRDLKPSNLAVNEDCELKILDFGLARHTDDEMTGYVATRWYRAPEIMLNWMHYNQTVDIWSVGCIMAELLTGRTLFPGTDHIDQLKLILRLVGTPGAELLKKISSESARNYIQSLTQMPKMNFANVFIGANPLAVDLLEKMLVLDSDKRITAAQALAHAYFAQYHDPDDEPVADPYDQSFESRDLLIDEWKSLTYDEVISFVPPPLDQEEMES
Method in brief: as §1

ABL = target: T21, ABL (Homo sapiens, UniProt P00519); details: read-out: % of inhibition of the kinase compared to the control
T21 construct: purchased Invitrogen

KDR (VEGFR2) = target: T22, KDR (VEGFR2) (Homo sapiens, UniProt P35968); details: read-out: % of inhibition of the kinase compared to the control
T22 construct: purchased Invitrogen
Method in brief: as §1

EGFR (ErbB1) T790M L858R = target: T23, EGFR (ErbB1) T790M L858R (Homo sapiens, UniProt P00533, L858R/T790M); details: read-out: % of inhibition of the kinase compared to the control
T23 construct: purchased Invitrogen
Method in brief: as §1

LYN A = target: T24, LYN A (Homo sapiens, UniProt P07948); details: read-out: percent inhibition of the kinase compared to the control
T24 construct: purchased Invitrogen
Method in brief: as §1

ABL T315I = target: T25, ABL T315I (Homo sapiens, UniProt P00519, T315I); details: read-out: % of inhibition of the kinase compared to the control
T25 construct: purchased Invitrogen
Method in brief: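 Inhibition measured at a single dose, 100 nM, or 10 μM for ABL T315I. Z′-LYTE format with ATP at apparent Km; emission ratio of donor to acceptor quantifies phosphorylation.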

EPHB2 = target: T26, EPHB2 (Homo sapiens, UniProt P29323); details: read-out: percent inhibition of the kinase compared to the control
T26 construct: purchased Invitrogen
Method in brief: as §1

EPHA1 = target: T27, EPHA1 (Homo sapiens, UniProt P21709); details: read-out: percent inhibition of the kinase compared to the control
T27 construct: purchased Invitrogen
Method in brief: as §1

BLK = target: T28, BLK (Homo sapiens, UniProt P51451); details: read-out: percent inhibition of the kinase compared to the control
T28 construct: purchased Invitrogen
Method in brief: as §1

FGFR2 = target: T29, FGFR2 (Homo sapiens, UniProt P21802); details: read-out: % of inhibition of the kinase compared to the control
T29 construct: purchased Invitrogen
Method in brief: as §1

HCK = target: T30, HCK (Homo sapiens, UniProt P08631); details: read-out: percent inhibition of the kinase compared to the control
T30 construct: purchased Invitrogen
T30 sequence (P08631 whole entry): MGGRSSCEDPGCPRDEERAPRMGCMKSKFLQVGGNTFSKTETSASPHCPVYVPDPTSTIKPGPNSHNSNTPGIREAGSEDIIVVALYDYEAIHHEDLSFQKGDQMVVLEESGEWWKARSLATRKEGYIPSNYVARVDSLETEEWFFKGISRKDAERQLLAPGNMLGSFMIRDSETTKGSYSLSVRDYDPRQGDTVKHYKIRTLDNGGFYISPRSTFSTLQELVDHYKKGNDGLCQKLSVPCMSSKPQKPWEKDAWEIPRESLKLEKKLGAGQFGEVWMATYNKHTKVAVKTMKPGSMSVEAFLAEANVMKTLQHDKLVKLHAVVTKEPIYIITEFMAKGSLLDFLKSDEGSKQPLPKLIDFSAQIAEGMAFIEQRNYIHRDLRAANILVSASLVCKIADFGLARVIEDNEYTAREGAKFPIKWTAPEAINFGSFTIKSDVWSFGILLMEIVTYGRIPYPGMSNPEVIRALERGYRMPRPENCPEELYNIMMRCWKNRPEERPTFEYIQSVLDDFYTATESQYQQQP
Method in brief: as §1

SRC = target: T31, SRC (Homo sapiens, UniProt P12931); details: read-out: % of inhibition of the kinase compared to the control
T31 construct: purchased Invitrogen
T31 sequence (P12931 whole entry): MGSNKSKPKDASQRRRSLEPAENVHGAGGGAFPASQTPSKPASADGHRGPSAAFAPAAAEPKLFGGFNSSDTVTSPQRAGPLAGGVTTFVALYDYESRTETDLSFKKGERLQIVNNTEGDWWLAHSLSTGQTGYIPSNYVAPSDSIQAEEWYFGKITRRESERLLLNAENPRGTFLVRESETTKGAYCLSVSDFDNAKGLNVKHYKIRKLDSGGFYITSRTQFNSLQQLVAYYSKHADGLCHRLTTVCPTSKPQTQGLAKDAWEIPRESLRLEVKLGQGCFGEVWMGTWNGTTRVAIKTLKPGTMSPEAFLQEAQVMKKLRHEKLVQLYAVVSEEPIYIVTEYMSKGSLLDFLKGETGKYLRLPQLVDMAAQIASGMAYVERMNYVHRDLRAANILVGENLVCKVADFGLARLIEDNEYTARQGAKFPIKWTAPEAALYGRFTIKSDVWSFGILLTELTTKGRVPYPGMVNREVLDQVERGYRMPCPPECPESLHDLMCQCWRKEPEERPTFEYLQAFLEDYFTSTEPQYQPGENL
Method in brief: as §1

PDGFRB = target: T32, PDGFRB (Homo sapiens, UniProt P09619); details: read-out: % of inhibition of the kinase compared to the control
T32 construct: purchased Invitrogen
T32 sequence (P09619 33-1106): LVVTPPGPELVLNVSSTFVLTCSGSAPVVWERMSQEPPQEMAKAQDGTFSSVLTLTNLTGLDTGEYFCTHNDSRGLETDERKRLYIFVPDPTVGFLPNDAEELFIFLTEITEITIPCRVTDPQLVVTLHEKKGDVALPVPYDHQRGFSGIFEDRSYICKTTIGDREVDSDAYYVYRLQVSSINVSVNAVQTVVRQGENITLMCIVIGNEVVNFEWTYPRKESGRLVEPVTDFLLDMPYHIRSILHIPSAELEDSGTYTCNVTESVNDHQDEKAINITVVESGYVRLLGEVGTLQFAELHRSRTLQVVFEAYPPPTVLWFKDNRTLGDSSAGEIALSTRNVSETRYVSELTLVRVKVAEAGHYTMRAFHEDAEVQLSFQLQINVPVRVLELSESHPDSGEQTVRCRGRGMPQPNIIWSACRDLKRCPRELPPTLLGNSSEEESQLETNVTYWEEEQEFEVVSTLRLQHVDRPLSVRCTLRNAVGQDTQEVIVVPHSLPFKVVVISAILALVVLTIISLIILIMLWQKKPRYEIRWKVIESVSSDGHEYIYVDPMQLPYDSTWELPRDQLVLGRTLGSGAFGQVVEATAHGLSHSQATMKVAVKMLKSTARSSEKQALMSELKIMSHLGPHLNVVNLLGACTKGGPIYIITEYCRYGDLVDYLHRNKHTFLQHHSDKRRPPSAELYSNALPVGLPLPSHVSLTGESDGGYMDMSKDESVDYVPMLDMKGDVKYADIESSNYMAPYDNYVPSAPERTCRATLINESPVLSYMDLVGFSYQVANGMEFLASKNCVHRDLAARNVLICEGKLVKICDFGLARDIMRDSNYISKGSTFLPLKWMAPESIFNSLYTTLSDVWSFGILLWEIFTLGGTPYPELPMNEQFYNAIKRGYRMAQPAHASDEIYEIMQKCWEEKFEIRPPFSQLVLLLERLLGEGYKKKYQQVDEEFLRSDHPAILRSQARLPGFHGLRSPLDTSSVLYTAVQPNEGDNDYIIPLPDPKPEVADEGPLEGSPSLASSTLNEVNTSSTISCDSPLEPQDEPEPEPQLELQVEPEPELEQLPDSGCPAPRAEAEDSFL
Method in brief: as §1

Compound: COC(=O)c1cc2cc(NCc3cc(NC(=O)c4ccc(CN5CCN(C)CC5)c(C(F)(F)F)c4)ccc3C)cnc2[nH]1 [OR0512]
- inhibition at 0.1 µM (PDGFRA (PDGFR alpha)): ≥ 50%
- inhibition at 0.1 µM (ERK2): > 50%
- inhibition at 0.1 µM (FGFR1): ≥ 50%
- inhibition at 0.1 µM (YES): > 50%
- inhibition at 0.1 µM (BMX): > 50%
- inhibition at 0.1 µM (ABL G250E): > 50%
- inhibition at 0.1 µM (EPHA4): > 50%
- inhibition at 0.1 µM (ABL2): > 50%
- inhibition at 0.1 µM (FMS): > 50%
- inhibition at 0.1 µM (LCK): > 50%
- inhibition at 0.1 µM (ABL E255K): > 50%
- inhibition at 0.1 µM (VEGFR3): > 50%
- inhibition at 0.1 µM (VEGFR1): < 50%
- inhibition at 0.1 µM (FLT3): > 50%
- inhibition at 0.1 µM (FES): > 50%
- inhibition at 0.1 µM (ABL Y253F): > 50%
- inhibition at 0.1 µM (EGFR (ErbB1)): ≥ 50%
- inhibition at 0.1 µM (ERBB4): > 50%
- inhibition at 0.1 µM (CSK): > 50%
- inhibition at 0.1 µM (MAPK14): > 50%
- inhibition at 10 µM (ABL): ≥ 50%
- inhibition at 0.1 µM (KDR (VEGFR2)): ≥ 50%
- inhibition at 0.1 µM (EGFR (ErbB1) T790M L858R): < 50%
- inhibition at 0.1 µM (LYN A): > 50%
- inhibition at 10 µM (ABL T315I): ≥ 50%
- inhibition at 0.1 µM (EPHB2): > 50%
- inhibition at 0.1 µM (EPHA1): > 50%
- inhibition at 0.1 µM (BLK): > 50%
- inhibition at 0.1 µM (FGFR2): ≥ 50%
- inhibition at 0.1 µM (HCK): > 50%
- inhibition at 0.1 µM (SRC): ≥ 50%
- inhibition at 0.1 µM (PDGFRB): ≥ 50%
